PMC10761396, “Evaluation of new alternative methods for the identification of estrogenic, androgenic and steroidogenic effects: a comparative in vitro/in silico study” (Archives of Toxicology, 2023)
“Also recorded” adds a separate entry of the source. Like-named read-outs stand apart in the source and are kept apart here.

Columns and labels:
H295R cells = assay: H295R steroidogenesis assay (oestrogen and androgen production); type: cell-based, human; conditions: for minimal effective concentration: Homo sapiens, NCI-H295R, 48 h
Description: The in vitro H295R Steroidogenesis Assay is based on the human adenocarcinoma cell line, NCI-H295R, in which the human steroidogenesis pathway is fully functional (OECD 2022). The effect of the test chemical on the production of 17β-estradiol and testosterone is measured using ERα CALUX and AR CALUX technology.
The test chemical was tested in two independent assays, each in triplicate.

AR [1] = assay: ToxCast AR assays and final ToxCast call; conditions: for Final "true" call (ToxCast): AR effects, from active assays, cytotoxicity and pathway model; for ToxCast result: AR overall call from Supplementary Table 4; for Final "true" call (ToxCast) AR: from ToxCast assays and ToxCast Pathway Model
Source text: (§1) A rich source of data can be found in the EPA's ToxCast database (US EPA). This contains ED data for ~ 1800 chemicals in more than 700 high-throughput assay endpoints that cover a range of high-level cell responses. The US EPA is running an Endocrine Disruption Screening Program (EDSP), with the aim of prioritising chemicals using high-throughput screening methods and computational toxicology approaches to evaluate thousands of chemicals for ED activities. The OECD framework for ED assessment (OECD [2018]) requires animal testing at higher levels, where relevant in vitro alternatives are missing e.g. for developmental, reproductive, neurological and immune effects. However, such follow-up testing is not possible for the cosmetics industry especially in the EU due to the complete animal testing ban which came into force in March 2013 (EU [2009]). Even for other industries, animal models are not suitable for assessing ED effects due to issues relating to ethics, capacity, speed and relevance (Patisaul et al. [2018]). Therefore, chemicals which cannot be evaluated using in vivo method must be assessed using alternative methods e.g. in silico and in vitro methods listed in Levels 1 and 2 of the framework described in the OECD 150 test guideline (OECD [2018]).
(§2) The performance of different in silico models for ED effects tends to be evaluated on single model for a single effect, such as ER or AR binding, agonism or antagonism (normally by the developer), or a limited number of models using multiple chemicals (Weyrich et al. [2022]). Multi-organisation collaborations have also evaluated multiple models for a specific effect e.g. ER (Mansouri et al. [2016]) and AR (Mansouri et al. [2020]) effects. Therefore, we have conducted a side-by-side comparison of multiple different in silico models covering three pathways in ED, namely ER, AR and aromatase inhibition and compared these with ToxCast-derived final calls, as well as with results from in vitro assays. The efficiency of the in silico models was evaluated as a metric for the ability of the in silico model to generate concrete predictions. […] In vivo data were available for some but not all chemicals; therefore, an evaluation of the performance of the methods was made by comparing the derived overall calls from in silico models with those from the ToxCast database. The final call for each chemical evaluated in the ToxCast assays was made by considering the active-flagged assays and the corresponding cytotoxicity levels, the ToxCast Pathway Model (Browne et al. [2015]) and the CERAPP Potency Level (Mansouri et al. [2016]) for ER effects and the ToxCast Pathway Model (Kleinstreuer et al. [2017]) for AR effects (see Online Resource 1 Supplementary Tables 2, 4 and 6 for the outcome of the ER, AR and aromatase ToxCast assays, additional literature and final calls for each chemical and target).

human AR = human AR (Homo sapiens, UniProt P10275); assay: AR radioligand ([3H]methyltrienolone) receptor-binding assay
Description: Binding to ER and AR was conducted using standard methods for radioligand assays (Kurata et al. [2005]; Zava et al. [1979]).
The chemicals were tested for their ability to bind to different targets. In radioligand assays, targets included the binding affinity to human (non-selective) ER and human AR (Kurata et al. 2005; Zava et al. 1979). Chemicals were incubated at 10 µM with cells overexpressing ER or AR for 24 h at 4°C, after which, the binding of the radiolabeled ligand ([^3H]estradiol for ER and [^3H]methyltrienolone for AR) was measured by liquid scintillation counting. An increase or decrease higher than 50% were considered to represent significant effects. […] Receptor binding was calculated as a % inhibition of the binding of a radioactively labeled ligand specific for each target.
Each test chemical was tested in a single assay in duplicate.

ER [2] = assay: ToxCast ER assays and final ToxCast call; conditions: for Final "true" call (ToxCast) ER: from active ToxCast assays, cytotoxicity, ToxCast Pathway Model and CERAPP Potency Level; for ToxCast result (ER): overall call from ToxCast data (Supplementary Table 2)
Source text: as §1, §2

ER [3] = system: ER; set-up: method as in Mansouri et al. 2016; conditions: ref Mansouri et al. 2016; cited from earlier work
aromatase = system: aromatase; set-up: method as in US EPA ToxCast; conditions: ref US EPA ToxCast, cited from earlier work; for ToxCast (assays Comments), efficacy: borderline: less than 50% efficacy
AR [4] = system: AR; set-up: method as in ToxCast; conditions: ref ToxCast, cited from earlier work; for ToxCast conclusion from assays result: AR sheet; for ToxCast 1: (Active assays), number of positive assays / assays run: ToxCast AR assays
[5] = read-out: Steroidogenesis Androgenicity LEC
[6] = read-out: Steroidogenesis Estrogenicity LEC

Chain of human AR (P10275 whole entry): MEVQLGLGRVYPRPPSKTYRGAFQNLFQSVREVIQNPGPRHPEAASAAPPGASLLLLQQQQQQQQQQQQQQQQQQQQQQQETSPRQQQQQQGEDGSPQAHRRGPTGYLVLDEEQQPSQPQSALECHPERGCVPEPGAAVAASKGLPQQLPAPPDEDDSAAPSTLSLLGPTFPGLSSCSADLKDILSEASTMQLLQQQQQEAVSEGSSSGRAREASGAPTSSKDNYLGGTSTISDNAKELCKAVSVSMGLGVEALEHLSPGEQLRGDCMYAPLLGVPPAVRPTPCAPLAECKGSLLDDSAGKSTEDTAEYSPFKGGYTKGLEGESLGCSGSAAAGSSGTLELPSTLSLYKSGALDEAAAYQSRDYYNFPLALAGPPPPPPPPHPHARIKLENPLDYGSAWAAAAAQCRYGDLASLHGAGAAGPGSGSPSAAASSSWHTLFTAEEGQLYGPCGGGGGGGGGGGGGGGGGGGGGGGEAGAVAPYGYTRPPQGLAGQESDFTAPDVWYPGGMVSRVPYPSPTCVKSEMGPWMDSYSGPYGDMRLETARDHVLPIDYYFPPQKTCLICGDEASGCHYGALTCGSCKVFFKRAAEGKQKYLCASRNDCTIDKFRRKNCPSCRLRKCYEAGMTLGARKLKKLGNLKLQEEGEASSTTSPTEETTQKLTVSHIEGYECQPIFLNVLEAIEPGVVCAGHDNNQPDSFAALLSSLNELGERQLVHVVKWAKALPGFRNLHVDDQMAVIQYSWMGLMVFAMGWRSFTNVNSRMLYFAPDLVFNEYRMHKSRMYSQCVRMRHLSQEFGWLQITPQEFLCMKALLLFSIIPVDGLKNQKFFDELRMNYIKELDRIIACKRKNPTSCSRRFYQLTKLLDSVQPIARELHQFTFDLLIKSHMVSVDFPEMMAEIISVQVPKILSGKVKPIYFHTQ

## CC(C)(C)CC(C)(C)c1ccc(O)cc1 [4-TO, 4-tert-octylphenol]
H295R cells; [5]
  minimal effective concentration: > 1 µM
AR [1]
  Final "true" call (ToxCast): Positive for antagonism
  ToxCast result: AR antagonist only
  Final "true" call (ToxCast) AR: Positive for antagonism
Human AR
  AR binding outcome: significant binding
Human AR; read-out: inhibition of control specific binding to the AR
  inhibition at 10 µM: 10%
ER [2]
  Final "true" call (ToxCast) ER: Positive for agonism
  ToxCast result (ER): ER agonist only
ER [3]
  CERAPP Potency Level: Weak agonist & strong antagonist
aromatase
  ToxCast (assays Comments), efficacy: 31.35%
  ToxCast (Aromatase assays), positive/total: 2/2 positive
aromatase; listed as 4-tert-Octylphenol
  ToxCast (assays Comments), efficacy: Boarderline: less than 50% efficacy (31.35%)
aromatase; each listed assay name = active assay
  ToxCast (Aromatase assays), assay listed as active: TOX21_Aromatase_Inhibition; also recorded: TOX21_Aromatase_Inhibition_viability
AR [4]
  ToxCast conclusion from assays result: Endocrine Disruption Potential.Significant Estrogen Receptor activity seen

## CCCCN(CCCC)c1ccc(C(=O)c2ccccc2C(=O)O)c(O)c1 [DBABA, 2-[4-(dibutylamino)-2-hydroxybenzoyl]benzoic acid]
H295R cells; [5]
  minimal effective concentration: > 10 µM
H295R cells; [6]
  minimal effective concentration: > 10 µM
AR [1]
  Final "true" call (ToxCast): Negative
  ToxCast result: Negative
  Final "true" call (ToxCast) AR: Negative
Human AR
  AR binding outcome: did not bind to the AR
ER [2]
  Final "true" call (ToxCast) ER: Inconclusive
ER [3]
  CERAPP Potency Level: Negative
aromatase
  ToxCast (Aromatase assays), positive/total: 0/2 positive
AR [4]
  ToxCast conclusion from assays result: Endocrine Disruption Potential.Significant Estrogen Receptor activity seen
  ToxCast 1: (Active assays), number of positive assays / assays run: 2/8 positive
AR [4]; TOX21_AR_BLA_Antagonist_ratio
  ToxCast 1: (assays Comments): Only highest concentration above the baseline
AR [4]; TOX21_AR_BLA_Antagonist_viability
  efficacy (assays Comments): Boarderline: less than 50% efficacy (26.5%)

## O=c1c(-c2ccc(O)cc2)coc2cc(O)ccc12 [Daidzein, daidzein]
H295R cells; [5]
  minimal effective concentration: 0.794 µM
H295R cells; [6]
  minimal effective concentration: > 3.16 µM
H295R cells; decrease
  LEC, androgen production: 0.77 µM
H295R cells; highest concentration tested, 100 µM
  androgen production, fold of control: 0.06 fold of control
AR [1]
  Final "true" call (ToxCast): Inconclusive
Human AR
  AR binding outcome: did not bind to the AR
ER [2]
  Final "true" call (ToxCast) ER: Positive for agonism and antagonism
  ToxCast result (ER): ER agonist and antagonist
ER [3]
  CERAPP Potency Level: Weak agonist & strong antagonist
aromatase
  ToxCast (Aromatase assays), positive/total: 0/2 positive
AR [4]
  ToxCast conclusion from assays result: Endocrine Disruption Potential.Significant Estrogen Receptor activity seen
  ToxCast 1: (Active assays), number of positive assays / assays run: 2/15 positive
AR [4]; TOX21_AR_LUC_MDAKB2_Agonist
  efficacy (assays Comments): Boarderline: less than 50% efficacy (20.8%)

## C[C@]12CCC(=O)C[C@@H]1CC[C@@H]1[C@@H]2CC[C@@]2(C)[C@H]1CC[C@]2(C)O [Mestanolone, mestanolone, reference compound]
H295R cells; [5]
  minimal effective concentration: > 0.00316 µM
H295R cells; [6]
  minimal effective concentration: > 0.1 µM
AR [1]
  Final "true" call (ToxCast): Positive for agonism
  ToxCast result: AR agonist only
  Final "true" call (ToxCast) AR: Positive for agonism
ER [2]
  Final "true" call (ToxCast) ER: Positive for agonism and antagonism
  ToxCast result (ER): ER agonist and antagonist
ER [3]
  CERAPP Potency Level: Weak agonist & strong antagonist
aromatase
  ToxCast (Aromatase assays), positive/total: 0/2 positive
AR [4]
  ToxCast conclusion from assays result: Endocrine Disruption Potential.Significant Estrogen Receptor activity seen
  ToxCast 1: (Active assays), number of positive assays / assays run: 2/6 positive
AR [4]; TOX21_AR_BLA_Agonist_ratio
  ToxCast 1: (assays Comments): High active
AR [4]; TOX21_AR_LUC_MDAKB2_Agonist
  ToxCast 1: (assays Comments): High active
